Laboratory results published in patent publication US5814467A, “APO AI polypeptides, diagnostic methods and systems for quantifying APO AI, and therapeutic methods” (The Scripps Research Institute, priority 1994, dated 1998).
Entries after “also recorded” stand apart in the source; their conditions may differ.

Columns and labels:
[1] = molecular target: T1, LCAT (Homo sapiens, UniProt P04180); settings: cited from earlier work
T1 sequence (P04180 25-440): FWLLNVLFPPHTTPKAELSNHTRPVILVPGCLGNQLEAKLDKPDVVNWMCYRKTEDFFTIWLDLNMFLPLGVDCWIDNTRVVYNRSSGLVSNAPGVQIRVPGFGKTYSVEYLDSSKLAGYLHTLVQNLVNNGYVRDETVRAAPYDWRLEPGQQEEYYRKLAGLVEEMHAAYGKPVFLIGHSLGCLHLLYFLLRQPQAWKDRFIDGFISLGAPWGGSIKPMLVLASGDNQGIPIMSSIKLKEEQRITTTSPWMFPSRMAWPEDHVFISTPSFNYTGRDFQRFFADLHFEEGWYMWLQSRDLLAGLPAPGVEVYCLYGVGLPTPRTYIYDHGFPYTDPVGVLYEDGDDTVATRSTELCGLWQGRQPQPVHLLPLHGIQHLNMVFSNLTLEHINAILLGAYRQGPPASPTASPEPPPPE

[2] = system: MAB AI-11; experiment: Competitive RIA, MAB AI-11 binding to Apo AI/HDL-coated wells; parameters: species or system mouse; settings: FIG. 5 and FIG. 6
Protocol: (§1) One hundred μl of PBS (0.15M NaCl, 0.01M NaPO4, pH 7.2) containing 10 μg/ml Apo AI/HDL were admixed to the wells of microtiter plates. The plates were maintained for 1 hour at 20° C. on a rotating platform to allow the Apo AI/HDL to adhere to the wells and form solid supports. After aspirating excess liquid from the wells, 200 μl of block solution (3% BSA, 3% NGS in PBS) was admixed to each well, and the wells were maintained for 30 minutes at 20° C. on a rotating platform. Subsequently, the blocking solution was removed by aspiration, and the wells were washed 3 times with SPRIA buffer.
(§2) To each well was then admixed first with 50 μl of PBS containing 3% BSA and various concentrations of competitor antigen, i.e., Apo AI/HDL peptide, and, second, 50 μl of MAB AI-4 in the form of clarified ascites diluted 1:11.25×10^5 in PBS containing 3% BSA to form competitive immunoreaction admixtures. In control wells, either competing antigen or antibody was replaced by PBS containing 3% BSA.
(§3) The immunoreaction admixtures were maintained about 16 hours at 4° C. on a rotating platform to permit formation of solid-phase immunoreaction products. After washing the wells as previously described, 100 μl of ^125 I-labeled goat anti-mouse Ig (^125 I-goat anti-mouse Ig diluted to 2×10^5 trichloracetic acid precipitable disintegrations per minute per 100 μl in PBS containing 3% BSA) were admixed to each well. The labeling immunoreaction admixtures so formed were maintained for 4 hours at 4° C. on a rotating platform. Subsequently, the wells were washed with SPRIA buffer as previously described, and the amount of ^125 I-labeled solid-phase immunoreaction product formed was determined in a gamma counter.
The immunoreactivity of MAB AI-11 for native Apo AI/HDL and various synthetic polypeptides was examined by a competitive RIA as described in Example 10A. […] Other peptides were evaluated for their ability to immunoreact with AI-1l MAE in competitive RIAs described herein.

[3] = system: MAB AI-4; experiment: Competitive RIA, MAB AI-4 binding to Apo AI/HDL-coated wells; parameters: species or system mouse; settings: FIG. 3 and FIG. 4
Protocol: The immunoreactivity of MAB AI-4 for native Apo AI/HDL and various synthetic polypeptides was examined by a competitive RIA performed as follows:
as §1, §2, §3
The ability of MAB AI-4 to immunoreact with Apo AI/HDL was compared by using Apo AI/HDL and various synthetic peptides as competitors in the above-described RIA. B/Bo represents corrected CPMs which are plotted against increasing concentrations of competition in μg/ml. B/Bo values are determined in the following formula: [formula] where 0% CPM is a measure of non-specific background based on CPM obtained in RIAs where wells coated with Apo AI/HDL are reacted with the labeled secondary antibody in the absence of primary antibody and competitor, and where 100% CPM is a measure of the maximum non-competed binding of primary antibody to the substrate coated to the wells. The more efficiently a competitor binds to the primary antibody, the lower the B/Bo values.

[4] = system: monoclonal antibody AI-11; experiment: Solid-phase polypeptide direct binding ELISA; parameters: species or system mouse; settings: peptide coated at 50 μg/ml; 0.5 μg/ml HRP-conjugated AI-11
Protocol: Apo AI polypeptides AI84-111, AI85-111, AI90-111, AI93-111, AI94-111, AI-94-125, AI96-111, AI99-111, and AI99-114 were tested for immunoreactivity with monoclonal antibody AI-11 in a direct binding ELISA. In the assay, 50 μg/ml of each polypeptide was dissolved in PBS to form a peptide coating solution, of which 150 μl was admixed into the wells of a flexible polyvinyl chloride microtiter plate (Immulon). The wells were then maintained about 16 to 20 at 4° C. to permit the peptide to absorb onto (coat) the walls of the wells. After removing the peptide coating solution by shaking, the wells were washed once with 350 μl of rinsing buffer (PBS containing 1 g/l BSA, 0.5 ml/l Tween 20, and 2 μl/1 aprotinin). Excess protein binding sites were blocked by admixing 200 μl of blocking buffer (PBS containing 3% BSA) into each well, maintaining the wells for 1 hour at 37° C., removing the blocking buffer by shaking, and then washing the wells 3 times as previously described. The plate was then dried for 1 hour at 37° C. followed by addition of 100 μl of PBS containing 0.5 μg/ml horseradish peroxidase conjugated AI-11 antibody to form a solid-liquid phase immunoreaction admixture. The resulting solid-liquid phase immunoreaction admixture was maintained at 20° C. for 1 hour to permit formation of a solid-phase polypeptide-containing immunoreaction product. The wells were then washed 3 times with rinsing buffer to remove unbound antibody.
The amount of immunoreaction product present in the solid phase was then determined by admixing two hundred microliters of OPD substrate into each well to form a developing-reaction admixture. The admixture was maintained for 30 minutes at about 20° C. Subsequently, 50 μl of 4N H2 SO4 were admixed into each well to stop the developing-reaction, and the resulting solution was assayed for absorbance at 450 nanometers using a microtiter plate reader (Dynatech) to detect the amount of formed immunoreaction product.

[5] = system: monoclonal antibody AI-11; experiment: Competition ELISA, AI-11 binding to AI96-111-coated wells; parameters: species or system mouse; settings: FIG. 2, competitor from 1 mg/ml, serial 2-fold dilutions
Protocol: To determine the relative effectiveness of AI-11 binding to Apo AI synthetic polypeptides, a competition ELISA was performed with AI 96-111 as the test synthetic polypeptide in comparison to Apo AI-containing serum and purified Apo AI/HDL. Microtiter plates were coated with AI 96-111 as described hereinbefore. After the drying step of the assay described hereinbefore, 50 μl of a fluid sample (i.e., an Apo AI-containing fluid sample) or standard (i.e., an Apo AI polypeptide) to be assayed were admixed into the polypeptide AI96-111-coated well simultaneously with 50 μl of HRPO-conjugated AI-11 antibody to form an immunoreaction admixture. In the assay described herein, 3 competitors were tested for their ability to compete for binding of AI-11 to the AI 96-111 polypeptide coated over a range of dilutions. The polypeptide AI 96-111 was added in separate coated wells at a starting concentration of 1 mg/ml and diluted 2-fold serially 6 times down to a final concentration of 0.0156 mg/ml. Serum samples as described in Example 2 were added at a starting dilution of 1:10 and diluted 2-fold serially 6 times down to a final dilution of […]. Apo AI/HDL as described in Example 2 was added at a starting concentration of 1 mg/ml and diluted 2-fold 5 times down to a final concentration of 0.031 mg/ml. The plate was then incubated for 30 minutes at room temperature. […]

immunoreactivity with MAB AI-11, competition of binding to Apo AI/HDL [2] | immunoreactivity with MAB AI-4, competition of binding to Apo AI/HDL [3] | immunoreactivity with monoclonal antibody AI-11 in direct binding ELISA [4] | Substance | other results
do not immunoreact | did not react | – | AI100-105: peptide derived from Apo AI, residues 100-105 (YLDDFQ) | –
– | – | not bound by the antibody | AI99-111: Apo AI polypeptide, residues 99-111 (PYLDDFQKKWQEE) | –
– | did not react | – | AI101-111: peptide derived from Apo AI, residues 101-111 (LDDFQKKWQEE) | –
competitively inhibit | competitively inhibit | – | Apo AI/HDL: Apo AI when it is present on HDL particles, isolated from plasma [reference compound] | competition for binding of AI-11 to coated AI96-111 [5]: competitively inhibit; competition for binding of AI-11 to coated AI96-111 ([5]; listed as purified HDL): greater affinity

The remaining lines, values behind:

Substance | immunoreactivity with MAB AI-11, competition of binding to Apo AI/HDL [2] | immunoreactivity with MAB AI-4, competition of binding to Apo AI/HDL [3] | immunoreactivity with monoclonal antibody AI-11 in direct binding ELISA [4] | other results
Apo AI residues 121-164: synthetic polypeptide corresponding to Apo AI residues 121-164 (Fukushima et al.) (PLRAELQEGARQKLHELQEKLSPLGEEMRDRARAHVDALRTHLA; UniProt P02647 145-188, looked up, fragment) | – | – | – | effectiveness relative to native Apo AI in the activation of cholesterol esterification ([1]; Fukushima et al. 1980): 30%
KAKVQPYLDDXQKKWQEEMEL (KAKVQPYLDDFQKKWQEEMEL) [AI94-114] | – | partial reactivity | – | –
KAKVQPYLDDXQKKWQEEMELYRQKVEPLRAE (KAKVQPYLDDFQKKWQEEMELYRQKVEPLRAE) [AI94-125] | inhibited; also recorded: immunoreact | better competitor; also recorded: competitively inhibit; also recorded: immunoreacts | specifically immunoreactive | –
Apo AI fragment residues 148-185: Apo AI fragment residues 148-185 (Sparrow et al.) (MRDRARAHVDALRTHLAPYSDELRQRLAARLEALKENG; UniProt P02647 172-209, looked up, fragment) | – | – | – | involvement in activation of LCAT and lipid binding ([1]; Sparrow et al. 1980): involved in both activation of LCAT and lipid binding
PYLDDXQKKWQEEMEL (PYLDDFQKKWQEEMEL) [AI99-114] | – | partial reactivity; also recorded: immunoreacted | recognized by the antibody but with decreased specificity | –
PYLDDXQKKWQEEMELYRQKVEP (PYLDDFQKKWQEEMELYRQKVEP) [AI99-121] | does not bind; also recorded: not a competitive inhibitor | nearly as well as Apo AI/HDL; also recorded: competitively inhibit; also recorded: immunoreacts | – | –
